Laboratory results taken from paper PMC8400920, “Metabolism of Diterpenoids Derived from the Bark of Cinnamomum cassia in Human Liver Microsomes” (Pharmaceutics, 2021).

Columns and labels:
CYP1A2 = target: T1, CYP1A2 (Homo sapiens, UniProt P05177); assay: AHC metabolism by recombinant cDNA-expressed CYP isoform; assay type: in vitro ADME; conditions: 10 µM AHC, 10 pmol recombinant CYP, NGS, 37 °C, 60 min
T1 construct: purchased Corning Gentest
T1 sequence (P05177 1-516): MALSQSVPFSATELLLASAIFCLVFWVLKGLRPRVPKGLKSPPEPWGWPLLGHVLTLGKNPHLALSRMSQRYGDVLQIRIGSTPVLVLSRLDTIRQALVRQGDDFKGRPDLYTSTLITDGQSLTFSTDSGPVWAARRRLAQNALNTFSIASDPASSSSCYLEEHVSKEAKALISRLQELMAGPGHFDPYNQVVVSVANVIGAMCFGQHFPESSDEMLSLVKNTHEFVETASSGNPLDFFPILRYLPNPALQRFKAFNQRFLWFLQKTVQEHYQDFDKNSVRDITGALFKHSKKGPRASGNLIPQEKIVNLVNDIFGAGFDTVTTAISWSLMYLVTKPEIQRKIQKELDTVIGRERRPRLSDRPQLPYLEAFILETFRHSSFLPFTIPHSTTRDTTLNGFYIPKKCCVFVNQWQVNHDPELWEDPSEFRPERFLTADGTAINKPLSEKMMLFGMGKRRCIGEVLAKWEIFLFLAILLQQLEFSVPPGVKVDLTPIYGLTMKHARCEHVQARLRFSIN
Method: (§1) To identify the metabolic enzymes for AHC, 10 µM AHC was incubated with 10 pmol of human recombinant cDNA-expressed CYP isoforms (CYP1A1, 1A2, 2A6, 2B6, 2C8, 2C9, 2C19, 2D6, 2E1, 3A4, and 3A5) in the presence of 0.1 M potassium phosphate buffer (pH 7.4). The reaction was initiated by adding 100 µL of NGS at 37 °C for 60 min. Then, the mixture was suspended by adding 400 µL of ice-cold 100% ACN. Following centrifugation at 15,700× g for 10 min at 4 °C, the supernatant was transferred to a new tube and evaporated using a speed-vacuum concentrator. Next, the dried sample was diluted with 100 µL of 20% MeOH containing 0.1% formic acid, and a 5 µL aliquot was injected into a C18 column for LC–MS/MS analysis.
(§2) To identify the CYP isoforms involved in AHC metabolism, AHC (10 µM) was incubated with eleven cDNA-expressed recombinant CYP isoforms (CYP1A1, CYP1A2, CYP2A6, CYP2B6, CYP2C8, CYP2C9, CYP2C19, CYP2D6, CYP2E1, CYP3A4, and CYP3A5) in the presence of the NGS. […] However, the metabolites of AHC were not observed from reactions with other CYPs. Thus, in the metabolism of AHC in HLMs, CYP3A4 was involved as the main enzyme, and four types of metabolites were generated.

CYP2E1 = target: T2, CYP2E1 (Homo sapiens, UniProt P05181); assay: as above; assay type: in vitro ADME; conditions: 10 µM AHC, 10 pmol recombinant CYP, NGS, 37 °C, 60 min
T2 construct: purchased Corning Gentest
T2 sequence (P05181 whole entry): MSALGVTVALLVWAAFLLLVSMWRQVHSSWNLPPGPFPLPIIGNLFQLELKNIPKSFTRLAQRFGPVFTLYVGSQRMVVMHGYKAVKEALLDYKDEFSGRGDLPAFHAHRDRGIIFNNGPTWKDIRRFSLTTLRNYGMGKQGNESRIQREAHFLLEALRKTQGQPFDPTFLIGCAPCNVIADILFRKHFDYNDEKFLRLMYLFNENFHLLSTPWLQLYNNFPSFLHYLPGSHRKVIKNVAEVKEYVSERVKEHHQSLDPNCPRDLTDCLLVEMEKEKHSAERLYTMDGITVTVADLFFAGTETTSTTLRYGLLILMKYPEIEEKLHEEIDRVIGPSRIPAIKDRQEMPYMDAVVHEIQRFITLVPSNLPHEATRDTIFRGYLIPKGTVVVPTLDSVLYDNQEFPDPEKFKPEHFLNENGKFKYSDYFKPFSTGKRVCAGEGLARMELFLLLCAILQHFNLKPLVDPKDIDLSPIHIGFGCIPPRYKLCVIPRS
Method: as §1, §2

CC(=O)O[C@@H]1[C@@H](C)CC[C@]2(O)[C@]3(C)CC(=O)O[C@]12[C@@]1(O)C(C)=C(C(C)C)C[C@@]31O [AHC, anhydrocinnzeylanine]
metabolites of AHC from reaction with CYP1A2 (CYP1A2): not observed | metabolites of AHC from reaction with CYP2E1 (CYP2E1): not observed
